Test results taken from US10597388B2, “Pyridazinone herbicides” (FMC CORPORATION, priority 2014, dated 2020).

Columns and labels:
Assay in all cases: Test D controlled growth environment herbicide test, pre- and postemergence
Type in all cases: in vivo
[1] = system: oat, wild (wild oat, Avena fatua)
Method in brief: (§1)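 Species sown in silt loam and sprayed preemergence, or grown in peat-based medium to 2–18 cm (1- to 4-leaf stage) and sprayed postemergence, with compounds in non-phytotoxic solvent plus surfactant. Visual injury scored versus controls after 14–21 d in a controlled environment, 0 (no effect) to 100 (complete control).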

[2] = system: field violet (Viola arvensis)
Method in brief: as §1

[3] = system: Russian thistle (Salsola kali)
Method in brief: as §1

[4] = system: buckwheat, wild (wild buckwheat, Polygonum convolvulus)
Method in brief: as §1

[5] = system: bromegrass, downy (downy bromegrass, Bromus tectorum)
Method in brief: as §1

[6] = system: oilseed rape (Brassica napus)
Method in brief: as §1

kochia (Kochia scoparia) = system: kochia (Kochia scoparia)
Method in brief: as §1

[7] = system: chamomile (scentless chamomile, Matricaria inodora)
Method in brief: as §1

[8] = system: lambsquarters (Chenopodium album)
Method in brief: as §1

[9] = system: blackgrass (Alopecurus myosuroides)
Method in brief: as §1

[10] = system: speedwell (bird's-eye speedwell, Veronica persica)
Method in brief: as §1

[11] = system: galium (catchweed bedstraw, Galium aparine)
Method in brief: as §1

[12] = system: pigweed (Amaranthus retroflexus)
Method in brief: as §1

[13] = Postemergence, 31 g ai/ha, scale 0 to 100 (0 no effect, 100 complete control)
[14] = Postemergence, 125 g ai/ha, visual rating on scale 0 (no effect) to 100 (complete control), 14 to 21 d
[15] = Postemergence, 250 g ai/ha, scale 0 to 100 (0 no effect, 100 complete control)
[16] = Preemergence, 125 g ai/ha, scale 0 to 100 (0 no effect, 100 complete control)
[17] = Preemergence, 250 g ai/ha, scale 0 to 100 (0 no effect, 100 complete control)
[18] = postemergence, 62 g ai/ha, scale 0 to 100, 0 no effect, 100 complete control
[19] = Preemergence, 62 g ai/ha, scale 0 to 100 (0 no effect, 100 complete control)

SMILES: CCC(=O)Oc1c(C)nn(C)c(=O)c1-c1c(C)sc2ccc(Cl)cc12 [Compound 109]
- Oat, Wild plant response rating [1, 13]: 95
- Plant response rating, Oat, Wild [1, 14]: 95
- Plant response rating, Oat, Wild [1, 15]: 100
- Plant response rating (scale of 0 to 100), Oat, Wild ([1]; Preemergence, 31 g ai/ha): 75
- Plant response rating (scale of 0 to 100), Oat, Wild ([1]; Preemergence, 62 g ai/ha): 80
- Plant response rating, Oat, Wild [1, 16]: 90
- Plant response rating, Oat, Wild [1, 17]: 90
- Plant response rating, Oat, Wild [1, 18]: 95
- Field Violet plant response rating [2, 13]: 90
- Plant response rating, Field Violet [2, 14]: 100
- Plant response rating, Field Violet [2, 15]: 100
- Plant response rating (scale of 0 to 100), Field Violet ([2]; Preemergence, 31 g ai/ha): 85
- Plant response rating (scale of 0 to 100), Field Violet ([2]; Preemergence, 62 g ai/ha): 100
- Plant response rating, Field Violet [2, 16]: 100
- Plant response rating, Field Violet [2, 17]: 100
- Plant response rating, Field Violet [2, 18]: 95
- Russian Thistle plant response rating [3, 13]: 60
- Plant response rating, Russian Thistle [3, 14]: 75
- Plant response rating, Russian Thistle [3, 15]: 90
- Plant response rating (scale of 0 to 100), Russian Thistle ([3]; Preemergence, 31 g ai/ha): 0
- Plant response rating (scale of 0 to 100), Russian Thistle ([3]; Preemergence, 62 g ai/ha): 20
- Plant response rating, Russian Thistle [3, 16]: 35
- Plant response rating, Russian Thistle [3, 17]: 50
- Plant response rating, Russian Thistle [3, 18]: 75
- Buckwheat, Wild plant response rating [4, 13]: 95
- Plant response rating, Buckwheat, Wild [4, 14]: 100
- Plant response rating, Buckwheat, Wild [4, 15]: 100
- Plant response rating (scale of 0 to 100), Buckwheat, Wild ([4]; Preemergence, 31 g ai/ha): 0
- Plant response rating, Buckwheat, Wild [4, 19]: 20
- Plant response rating, Buckwheat, Wild [4, 16]: 30
- Plant response rating, Buckwheat, Wild [4, 17]: 75
- Plant response rating, Buckwheat, Wild [4, 18]: 95
- Bromegrass, Downy plant response rating [5, 13]: 30
- Plant response rating, Bromegrass, Downy [5, 14]: 60
- Plant response rating, Bromegrass, Downy [5, 15]: 75
- Plant response rating (scale of 0 to 100), Bromegrass, Downy ([5]; Preemergence, 31 g ai/ha): 0
- Plant response rating, Bromegrass, Downy [5, 19]: 30
- Plant response rating, Bromegrass, Downy [5, 16]: 65
- Plant response rating, Bromegrass, Downy [5, 17]: 65
- Plant response rating, Bromegrass, Downy [5, 18]: 30
- Oilseed Rape plant response rating [6, 13]: 65
- Plant response rating, Oilseed Rape [6, 14]: 75
- Plant response rating, Oilseed Rape [6, 15]: 85
- Plant response rating (scale of 0 to 100), Oilseed Rape ([6]; Preemergence, 31 g ai/ha): 15
- Plant response rating (scale of 0 to 100), Oilseed Rape ([6]; Preemergence, 62 g ai/ha): 40
- Plant response rating, Oilseed Rape [6, 16]: 75
- Plant response rating, Oilseed Rape [6, 17]: 85
- Plant response rating, Oilseed Rape [6, 18]: 70
- Kochia plant response rating (kochia (Kochia scoparia); [13]): 95
- Plant response rating, Kochia (kochia (Kochia scoparia); [14]): 100
- Plant response rating, Kochia (kochia (Kochia scoparia); [15]): 100
- Plant response rating (scale of 0 to 100), Kochia (kochia (Kochia scoparia); Preemergence, 31 g ai/ha): 20
- Plant response rating (scale of 0 to 100), Kochia (kochia (Kochia scoparia); Preemergence, 62 g ai/ha): 70
- Plant response rating, Kochia (kochia (Kochia scoparia); [16]): 80
- Plant response rating, Kochia (kochia (Kochia scoparia); [17]): 100
- Plant response rating, Kochia (kochia (Kochia scoparia); [18]): 100
- Chamomile plant response rating [7, 13]: 80
- Plant response rating, Chamomile [7, 14]: 95
- Plant response rating, Chamomile [7, 15]: 100
- Plant response rating, Chamomile [7, 18]: 85
- Lambsquarters plant response rating [8, 13]: 90
- Plant response rating, Lambsquarters [8, 14]: 95
- Plant response rating, Lambsquarters [8, 15]: 100
- Plant response rating (scale of 0 to 100), Lambsquarters ([8]; Preemergence, 31 g ai/ha): 95
- Plant response rating (scale of 0 to 100), Lambsquarters ([8]; Preemergence, 62 g ai/ha): 100
- Plant response rating, Lambsquarters [8, 16]: 100
- Plant response rating, Lambsquarters [8, 17]: 100
- Plant response rating, Lambsquarters [8, 18]: 95
- Blackgrass plant response rating [9, 13]: 20
- Plant response rating, Blackgrass [9, 14]: 65
- Plant response rating, Blackgrass [9, 15]: 75
- Plant response rating (scale of 0 to 100), Blackgrass ([9]; Preemergence, 31 g ai/ha): 25
- Plant response rating, Blackgrass [9, 19]: 25
- Plant response rating, Blackgrass [9, 16]: 75
- Plant response rating, Blackgrass [9, 17]: 80
- Plant response rating, Blackgrass [9, 18]: 30
- Speedwell plant response rating [10, 13]: 50
- Plant response rating, Speedwell [10, 14]: 75
- Plant response rating, Speedwell [10, 15]: 100
- Plant response rating, Speedwell [10, 18]: 60
- Galium plant response rating [11, 13]: 100
- Plant response rating, Galium [11, 14]: 100
- Plant response rating, Galium [11, 15]: 100
- Plant response rating (scale of 0 to 100), Galium ([11]; Preemergence, 31 g ai/ha): 40
- Plant response rating (scale of 0 to 100), Galium ([11]; Preemergence, 62 g ai/ha): 75
- Plant response rating, Galium [11, 16]: 100
- Plant response rating, Galium [11, 17]: 100
- Plant response rating, Galium [11, 18]: 100
- Pigweed plant response rating [12, 13]: 85
- Plant response rating, Pigweed [12, 14]: 100
- Plant response rating, Pigweed [12, 15]: 100
- Plant response rating (scale of 0 to 100), Pigweed ([12]; Preemergence, 31 g ai/ha): 100
- Plant response rating (scale of 0 to 100), Pigweed ([12]; Preemergence, 62 g ai/ha): 100
- Plant response rating, Pigweed [12, 16]: 100
- Plant response rating, Pigweed [12, 17]: 100
- Plant response rating, Pigweed [12, 18]: 85
